What all share (type): cell-based
In assay [1] the test system is HTT mRNA alternative junction (AJ). Nature of the assay: Splicing RT-qPCR assay, increase of HTT alternative junction (AJ) mRNA. The conditions noted are these: A673 or K562 cells, 24 hours compound treatment, concentration having 50% response in AJ increase. The protocol:
(§1) Compounds described herein were used to modulate RNA transcript abundance in cells. The expression of a target mRNA was measured by detecting the formation of an exon-exon junction in the canonical transcript (CJ). A compound mediated exon-inclusion event was detected by observing an increase in formation of a new junction with an alternative exon (AJ). Real-time qPCR assays were used to detect these splicing switches and interrogate the potency of various compounds towards different target genes. A high-throughput real time quantitative PCR (RT-qPCR) assay was developed to measure these two isoforms of the mRNA (CJ and AJ) for an exemplary gene, HTT, together with a control housekeeping gene, GAPDH or GUSB or PPIA, used for normalization. Briefly, the A673 or K562 cell line was treated with various compounds described herein (e.g., compounds of Formula (I)). After treatment, the levels of the HTT mRNA targets were determined from each sample of cell lysate by cDNA synthesis followed by qPCR.
(§2) The A673 cell line was cultured in DMEM with 10% FBS. Cells were diluted with full growth media and plated in a 96-well plate (15,000 cells in 100 ul media per well). The plate was incubated at 37° C. with 5% CO2 for 24 hours to allow cells to adhere. An 11-point 3-fold serial dilution of the compounds was made in DMSO then diluted in media in an intermediate plate. Compounds were transferred from the intermediate plate to the cell plate with the top dose at a final concentration of 10 uM in the well. Final DMSO concentration was kept at or below 0.25%. The cell plate was returned to the incubator at 37° C. with 5% CO2 for an additional 24 hours.
(§3) The K562 cell line was cultured in IMDM with 10% FBS. For K562, cells were diluted with full growth media and plated in either a 96-well plate (50,000 cells in 50 uL media per well) or a 384-well plate (8,000-40,000 cells in 45 uL media per well). An 11-point 3-fold serial dilution of the compounds were made in DMSO then diluted in media in an intermediate plate. Compound was transferred from the intermediate plate to the cell plate with the top dose at a final concentration of 10 uM in the well. Final DMSO concentration was kept at or below 0.25%. Final volume was 100 uL for 96-well plate and 50 uL for 384-well plate. The cell plate was then placed in an incubator at 37° C. with 5% CO2 for 24 hours.
(§4) The cells were then gently washed with 50 uL-100 uL cold PBS before proceeding to addition of lysis buffer. 30 uL-50 uL of room temperature lysis buffer with DNAse I (and optionally RNAsin) was added to each well. Cells were shaken/mixed thoroughly at room temperature for 5-10 minutes for lysis to take place and then 3 uL-5 uL of room temperature stop solution was added and wells were shaken/mixed again. After 2-5 minutes, the cell lysate plate was transferred to ice for RT-qPCR reaction setup. The lysates could also be frozen at −80° C. for later use.
(§5) In some cases, a direct lysis buffer was used. An appropriate volume of 3× lysis buffer (10 mM Tris, 150 mM NaCl, 1.5%-2.5% Igepal and 0.1-1 U/uL RNAsin, pH 7.4) was directly added to either K562 or A673 cells in media and mixed by pipetting 3 times. The plates were then incubated at room temperature with shaking/rocking for 20-50 minutes to allow for lysis to take place. After this time, the cell lysate plate was transferred to ice to set up for the RT-qPCR reactions. The lysates could also be frozen at −80° C. for later use.
(§6) To set up 10 uL RT-qPCR reactions, cell lysates were transferred to 384-well qPCR plates containing the master mix according to the table below. The plates were sealed, gently vortexed, and spun down before the run. The volumes were adjusted accordingly in some instances where the reaction was carried in 20 uL. The table below summarizes the components of the RT-qPCR reactions:
(§7) The RT-qPCR reaction was performed using a QuantStudio (ThermoFisher) under the following fast cycling conditions. […]
A general note: In qPCR the cycle at which signal appears reflects the starting amount.

Assay [2] deals with HTT mRNA canonical junction (CJ). The assay can be described thus: Splicing RT-qPCR assay, decrease of HTT canonical junction (CJ) mRNA. The conditions noted are these: A673 or K562 cells, 24 hours compound treatment, concentration having 50% response in CJ decrease. The protocol: as §1, §2, §3, §4, §5, §6, §7
A further assay deals with HTT CJ mRNA. The assay can be described thus: Gene panel canonical junction qPCR assay, HTT. The conditions noted are these: protocol of Example 42, read-out: HTT IC50 (decrease in CJ mRNA levels). On the procedure:
as §1, §2, §3
(§8) The data analysis was performed by first determining the ACt vs the housekeeper gene. This ACt was then normalized against the DMSO control (AACt) and converted to RQ (relative quantification) using the 2^(−ΔΔCt) equation. The RQ were then converted to a percentage response by arbitrarily setting an assay window of 3.5 ΔCt for HTT-CJ and an assay window of 9 ΔCt for HTT-AJ. […] The percentage response was then fitted to the 4 parametric logistic equation to evaluate the concentration dependence of compound treatment. The increase in AJ mRNA is reported as AC50 (compound concentration having 50% response in AJ increase) while the decrease in CJ mRNA levels is reported as IC50 (compound concentration having 50% response in CJ decrease).
(§9) Additional studies were carried out for a larger panel of genes using the protocol provided above. The junction between flanking upstream and downstream exons was used to design canonical junction qPCR assays. At least one of the forward primer, reverse primer or the CY5-labeled 5′ nuclease probe (with 3′ quencher such as ZEN/Iowa Black FQ) was designed to overlap with the exon junction to capture the CJ mRNA transcript. BLAST was used to confirm the specificity of the probeset and parameters such as melting temperature, GC content, amplicon size, and primer dimer formation are considered during their design. Data for the decrease in CJ mRNA levels for three exemplary genes (HTT, SMN2, and Target C) analyzed in this panel are reported as IC50 (compound concentration having 50% response in CJ decrease).

A further assay concerns SMN2 CJ mRNA. Nature of the assay: Gene panel canonical junction qPCR assay, SMN2. The conditions noted are these: protocol of Example 42, read-out: SMN2 IC50 (decrease in CJ mRNA levels). The protocol: as §1, §2, §3, §8, §9
The next assay has as its system Target C CJ mRNA. The assay can be described thus: Gene panel canonical junction qPCR assay, Target C. The conditions noted are these: protocol of Example 42, read-out: Target C IC50 (decrease in CJ mRNA levels). The protocol:
as §1, §2, §3, §8, §9

From US20230365566A1, “HETEROCYCLIC AMIDES AND THEIR USE FOR MODULATING SPLICING” (REMIX THERAPEUTICS INC., priority 2020, published 2023) come the findings set out here.

Where only a bound is given, the exact number is not on record here.

Take `Cc1cn2cc(NC(=O)c3ccc(C4CCNCC4)c4oc(C)nc34)cc(F)c2n1` [Compound 187, N-[8-fluoro-2-methylimidazo[1,2-a]pyridin-6-yl]-2-methyl-7-(piperidin-4-yl)-1,3-benzoxazole-4-carboxamide]: the half-maximal activity concentration (AC50) in assay [1] and in assay [2] was 0.1 to 1 µM each time. For the same molecule, the half-maximal inhibitory concentration (IC50) (as a rule, the concentration that inhibits the measured activity by half) was 0.1 to 1 µM in the assay with HTT CJ mRNA, less than 0.1 µM in the assay with SMN2 CJ mRNA and 0.1 to 1 µM in the assay with Target C CJ mRNA.
As to `Cc1cn2cc(NC(=O)c3ccc(C4CCNCC4)c4c3OCC4)cc(F)c2n1` [Compound 188, N-[8-fluoro-2-methylimidazo[1,2-a]pyridin-6-yl]-4-(piperidin-4-yl)-2,3-dihydro-1-benzofuran-7-carboxamide], the AC50 in assay [1] and in assay [2] was greater than 10 µM throughout. Besides, the IC50 is greater than 10 µM in the assay with HTT CJ mRNA, 0.1 to 1 µM in the assay on SMN2 CJ mRNA and 1 to 10 µM in the assay with Target C CJ mRNA.
Regarding `Cc1cn2cc(NC(=O)c3ccc(N4CCN(C)CC4)c4cc(C)oc34)cc(F)c2n1` [Compound 189, N-[8-fluoro-2-methylimidazo [1,2-a]pyridin-6-yl]-2-methyl-4-(4-methylpiperazin-1-yl)-1-benzofuran-7-carboxamide], the concentration at half-maximal activity (AC50) in assay [1] and in assay [2] was 1 to 10 µM each time. Moreover, the IC50 in the assay with HTT CJ mRNA is 1 to 10 µM; in the assay on SMN2 CJ mRNA it was less than 0.1 µM; in the assay on Target C CJ mRNA it was 1 to 10 µM.
As for `Cc1cn2cc(NC(=O)c3ccc(N4CCNC(C)C4)c4cc(C)oc34)cc(F)c2n1` (stereo not drawn) [Compound 190, N-{8-fluoro-2-methylimidazo[1,2-a]pyridin-6-yl}-2-methyl-4-(3-methylpiperazin-1-yl)-1-benzofuran-7-carboxamide], the AC50 in assay [1] and in assay [2] was 1 to 10 µM throughout. Besides, the IC50 in the assay on HTT CJ mRNA lay in the range of 1 to 10 µM; in the assay on SMN2 CJ mRNA, 0.1 to 1 µM; with Target C CJ mRNA it was 1 to 10 µM.
As to `Cc1cn2cc(NC(=O)c3ccc(N4CCN(C)C(C)C4)c4cc(C)oc34)cc(F)c2n1` (stereo not drawn) [Compound 191], the AC50 – broadly, the concentration giving half of the maximal activity seen – in assay [1] lay in the range of 1 to 10 µM; in assay [2] it was 0.1 to 1 µM. The results for the IC50 in the assay with HTT CJ mRNA, in the assay on SMN2 CJ mRNA and in the assay on Target C CJ mRNA were 0.1 to 1 µM, less than 0.1 µM and 1 to 10 µM, respectively.
In the case of `Cc1cn2cc(NC(=O)c3ccc(N4CCNC(C)(C)C4)c4cc(C)oc34)cc(F)c2n1` [Compound 193], the half-maximal activity concentration (AC50) in assay [1] and in assay [2] was 1 to 10 µM in each case. The results for the IC50 in the assay with HTT CJ mRNA, with SMN2 CJ mRNA and with Target C CJ mRNA were 1 to 10 µM, less than 0.1 µM and greater than 10 µM, respectively.
Take `Cc1cn2cc(NC(=O)c3ccc(N4CCNC5(CC5)C4)c4cc(C)oc34)cc(F)c2n1` [Compound 194]: the concentration at half-maximal activity (AC50) in assay [1] and in assay [2] was 1 to 10 µM in each case. Further, the 50% inhibitory concentration (IC50) with HTT CJ mRNA was 1 to 10 µM; with SMN2 CJ mRNA, less than 0.1 µM; in the assay with Target C CJ mRNA, greater than 10 µM.
For `CCNC1CCN(c2ccc(C(=O)Nc3cc(F)c4nc(C)cn4c3)c3oc(C)cc23)CC1` [Compound 196, 4-[4-(ethylamino)piperidin-1-yl]-N-[8-fluoro-2-methylimidazo[1,2-a]pyridin-6-yl]-2-methyl-1-benzofuran-7-carboxamide], the concentration at half-maximal activity (AC50) in assay [1] and in assay [2] was 1 to 10 µM in each case. Further, the 50% inhibitory concentration (IC50) in the assay on HTT CJ mRNA was 1 to 10 µM; in the assay with SMN2 CJ mRNA, less than 0.1 µM; with Target C CJ mRNA, 1 to 10 µM.
With `Cc1cn2cc(NC(=O)c3ccc(N4CCC(NC(C)(C)C)CC4)c4cc(C)oc34)cc(F)c2n1` [Compound 197, 4-[4-(tert-butylamino)piperidin-1-yl]-N-[8-fluoro-2-methylimidazo[1,2-a]pyridin-6-yl]-2-methyl-1-benzofuran-7-carboxamide], the AC50 in assay [1] and in assay [2] was greater than 10 µM each time. For the same molecule, the IC50 was greater than 10 µM with HTT CJ mRNA, 0.1 to 1 µM in the assay with SMN2 CJ mRNA and greater than 10 µM with Target C CJ mRNA.
In the case of `Cc1cn2cc(NC(=O)c3ccc(N4CCC(N(C)C)CC4)c4cc(C)oc34)cc(F)c2n1` [Compound 198, 4-[4-(dimethylamino)piperidin-1-yl]-N-[8-fluoro-2-methylimidazo[1,2-a]pyridin-6-yl]-2-methyl-1-benzofuran-7-carboxamide], the concentration at half-maximal activity (AC50) lay in the range of 1 to 10 µM in assay [1] and 0.1 to 1 µM in assay [2]. Further, the half-inhibitory concentration (IC50) in the assay with HTT CJ mRNA is 0.1 to 1 µM; in the assay with SMN2 CJ mRNA it was less than 0.1 µM; in the assay with Target C CJ mRNA, 1 to 10 µM.
Turning to `Cc1cn2cc(NC(=O)c3ccc(N4CCN5CCCC5C4)c4cc(C)oc34)cc(F)c2n1` (stereo not drawn) [Compound 199, N-[8-fluoro-2-methylimidazo[1,2-a]pyridin-6-yl]-4-[hexahydro-1H-pyrrolo[1,2-a]pyrazin-2-yl]-2-methyl-1-benzofuran-7-carboxamide], the AC50 in assay [1] and in assay [2] was 0.1 to 1 µM in each case. Moreover, the IC50 was 0.1 to 1 µM with HTT CJ mRNA, less than 0.1 µM in the assay with SMN2 CJ mRNA and 1 to 10 µM with Target C CJ mRNA.
As for `Cc1cn2cc(NC(=O)c3ccc(N(C)C4CCN(C)CC4)c4cc(C)oc34)cc(F)c2n1` [Compound 200], the AC50 in assay [1] and in assay [2] was 1 to 10 µM each time. The half-inhibitory concentration (IC50) with HTT CJ mRNA is 1 to 10 µM; in the assay on SMN2 CJ mRNA, less than 0.1 µM; in the assay on Target C CJ mRNA, 1 to 10 µM.
Turning to `Cc1cn2cc(NC(=O)c3ccc(N(C)C4CC(C)(C)NC(C)(C)C4)c4cc(C)oc34)cc(F)c2n1` [Compound 201], the AC50 in assay [1] and in assay [2] was greater than 10 µM throughout. In addition, the IC50 is greater than 10 µM in the assay with HTT CJ mRNA, 1 to 10 µM in the assay with SMN2 CJ mRNA and greater than 10 µM with Target C CJ mRNA.
For the molecule `Cc1cn2cc(NC(=O)c3ccc(N4CCC(N(C)C)C4)c4cc(C)oc34)cc(F)c2n1` (stereo not drawn) [Compound 202], the concentration at half-maximal activity (AC50) was 1 to 10 µM in assay [1] and greater than 10 µM in assay [2]. The IC50 in the assay on HTT CJ mRNA was greater than 10 µM; in the assay on SMN2 CJ mRNA, less than 0.1 µM; with Target C CJ mRNA it was greater than 10 µM.
On to `Cc1cn2cc(NC(=O)c3ccc(N4CCC(NC(C)(C)C)C4)c4cc(C)oc34)cc(F)c2n1` (stereo not drawn) [Compound 203, 4-[3-(tert-butylamino)pyrrolidin-1-yl]-N-[8-fluoro-2-methylimidazo[1,2-a]pyridin-6-yl]-2-methyl-1-benzofuran-7-carboxamide], for which the AC50 in assay [1] and in assay [2] was 1 to 10 µM each time. Also, the IC50 lay within 1 to 10 µM with HTT CJ mRNA, 0.1 to 1 µM in the assay on SMN2 CJ mRNA and 1 to 10 µM with Target C CJ mRNA.
